Columns and labels:
apomyoglobin = target: T1, apomyoglobin (Physeter macrocephalus, UniProt P02185); assay: Hydrolysis of p-nitrophenyl alkanoates catalysed by apomyoglobin (absorbance at 400 nm); format: biochemical, sperm whale; settings: for k2 /KM (catalytic constant) / k2 /Kun (enhancement over rate in the absence of apomyoglobin) / K2 / kobs: 25° C.; for k2 /KM (catalytic constant) / k2 /Kun (enhancement over rate in the absence of apomyoglobin) / K2: pH 8; for K2: Lineweaver Burk; for kobs: pH 8, 0.05 M TRIS
T1 construct: purchased
Procedure: Preparation of Apomylglobin. The heme group was removed from sperm whale metmyoglobin by the acid acetone method of Rossi-Fanelli and coworkers, op. cit., from a commercially available sample which was not purified prior to use.
(§1) Hydrolysis of p-Nitrophenyl Alkanoates. The experimental methods used in the hydrolysis of these esters is exemplified by the hydrolysis of p-nitrophenyl caproate. Kinetic runs were performed with the semisynthetic enzyme, apomyoglobin, in excess of the substrate. All hydrolyses were done in 99.9% aqueous media at 25° C. at pH 8 using 0.05 molar tris(hydroxymethyl)aminomethane(TRIS) as a buffer. Each sample cuvette containing varying concentrations of apomyoglobin (Eo) in 1 ml of 0.05M buffer was allowed to equilibrate at 25° C. in a thermostated cell holder of a spectrophotometer. To this was added 1 microliter of 1.13×10^-2 M p-nitrophenyl caproate in ethanol and the contents thereafter were mixed well. The increase in absorbance at 400 nm arising from the p-nitrophenolate ion was monitored as a function of time until hydrolysis was complete.
(§2) In the absence of apomyoglobin the hydrolysis of a solution of 1.13×10^-5 M of the same ester under the same conditions proceeded with the rate constant of 2.7×10^-5 sec^-1. The enhancement achieved with the semisynthetic enzyme is therefore 1800.
Where the same type of experiment yielded a decrease in catalysis rate in those instances the deacylation may become rate limiting. Some results of ester hydrolysis catalyzed by apomyoglobin are summarized in Table 2, where k2 /kM is often referred to as the "catalytic constant," and kun is the hydrolytic rate constant in the absence of apomyoglobin.

[1] = Denaturation (stability) of the apoprotein under reaction conditions; format: physicochemical, sperm whale
Procedure: The reaction temperature also is dictated by stability of the semisynthetic enzyme. When apoprotein derived from, e.g., sperm whale myoglobin is used, it often is denatured substantially at a temperature in excess of about 40° C., and consequently its use is recommended at a temperature under about 40° C. However, it needs to be emphasized that even where the semisynthetic enzyme is denatured at a higher temperature it can be used so long as its denaturation is slower than hydrolysis, although no reuse may be possible.
Finally, the pH at which the hydrolysis is performed also is dictated by the denaturation properties of the semisynthetic enzyme. For example, where the apoprotein is derived from sperm whale myoglobin a pH range between about 6.5 and about 9 is found to cause little if any denaturation.

[2] = Hydrolysis of the ester in the absence of apomyoglobin (spontaneous rate); format: physicochemical; settings: 1.13×10^-5 M ester, 25° C., pH 8, 0.05 M TRIS
Procedure: as §1, §2

reconstituted myoglobin = assay: Hydrolysis of p-nitrophenyl caproate with reconstituted myoglobin (apomyoglobin and hemin); format: biochemical, sperm whale; settings: reconstituted myoglobin from apomyoglobin and hemin
Procedure: as §1
To ascertain that our remarkable catalytic rates result from the active site only of the empty heme pocket or cavity the following experiments were performed. In the first experiment reconstituted myoglobin was prepared from apomyoglobin and hemin, and the hydrolysis of p-nitrophenyl caproate was determined as previously described. […] This eliminates the possibility that periperal lysine and histidine residues catalyze hydrolysis. […]

[3] = test system: apomyoglobin (denatured, 8 molar urea); assay: Hydrolysis of p-nitrophenyl acetate with apomyoglobin denatured in 8 molar urea; format: biochemical, sperm whale; settings: after 150 seconds, apomyoglobin solution also 8 molar in urea
Procedure: To ascertain that our remarkable catalytic rates result from the active site only of the empty heme pocket or cavity the following experiments were performed. In the first experiment reconstituted myoglobin was prepared from apomyoglobin and hemin, and the hydrolysis of p-nitrophenyl caproate was determined as previously described. […] This eliminates the possibility that periperal lysine and histidine residues catalyze hydrolysis. In the second experiment the rate of hydrolysis of a solution of p-nitrophenyl acetate in buffer containing apomyoglobin, prepared as described above, was compared with the rate of hydrolysis in a similar solution which was also 8 molar in urea to ensure denaturation of apomyoglobin. After 150 seconds the reaction was 98% complete in the first solution, but only 2% complete in the urea-containing solution.

T1 sequence (P02185 whole entry): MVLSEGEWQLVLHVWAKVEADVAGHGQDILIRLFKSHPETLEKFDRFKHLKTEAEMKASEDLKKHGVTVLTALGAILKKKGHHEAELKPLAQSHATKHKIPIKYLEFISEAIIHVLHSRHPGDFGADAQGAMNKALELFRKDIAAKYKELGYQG

Compound: CCCC(=O)Oc1ccc([N+](=O)[O-])cc1 [Butyrate]
- k2 /KM (catalytic constant) (apomyoglobin): 26.4 M⁻¹ s⁻¹
- k2 /Kun (enhancement over rate in the absence of apomyoglobin) (apomyoglobin): 127
- K2 (apomyoglobin): 0.0038 s⁻¹

Compound: CCCCCCCCCC(=O)Oc1ccc([N+](=O)[O-])cc1 [Caprate]
- k2 /KM (catalytic constant) (apomyoglobin): 49 M⁻¹ s⁻¹
- k2 /Kun (enhancement over rate in the absence of apomyoglobin) (apomyoglobin): 4600
- K2 (apomyoglobin): 0.03 s⁻¹

Compound: apoprotein derived from, e.g., sperm whale myoglobin: sperm whale metmyoglobin from which the heme group was removed by the acid acetone method; semisynthetic esterase
- temperature above which substantially denatured [1]: > 40 °C

Compound: CCCCCC(=O)Oc1ccc([N+](=O)[O-])cc1 [Caproate, p-nitrophenyl caproate]
- k2 /KM (catalytic constant) (apomyoglobin): 67 M⁻¹ s⁻¹
- k2 /Kun (enhancement over rate in the absence of apomyoglobin) (apomyoglobin): 1800
- kobs (apomyoglobin; Eo 2.11 (10^-5 M) apomyoglobin): 1.08 10^-2 sec^-1
- kobs (apomyoglobin; Eo 4.23 (10^-5 M) apomyoglobin): 1.84 10^-2 sec^-1
- kobs (apomyoglobin; Eo 6.35 (10^-5 M) apomyoglobin): 2.21 10^-2 sec^-1
- kobs (apomyoglobin; Eo 8.46 (10^-5 M) apomyoglobin): 2.63 10^-2 sec^-1
- kobs (apomyoglobin; Eo 10.6 (10^-5 M) apomyoglobin): 2.83 10^-2 sec^-1
- K2 (apomyoglobin): 0.0493 s⁻¹
- K2 (apomyoglobin; listed as p-nitrophenyl caproate): 0.0493 s⁻¹
- rate constant of hydrolysis in the absence of apomyoglobin [2]: 2.7e-05 s⁻¹
- hydrolysis rate relative to the spontaneous (uncatalyzed) rate (reconstituted myoglobin): not more than twice that of the spontaneous (uncatalyzed) rate

Compound: CCC(=O)Oc1ccc([N+](=O)[O-])cc1
- k2 /KM (catalytic constant) (apomyoglobin): 6.4 M⁻¹ s⁻¹
- k2 /Kun (enhancement over rate in the absence of apomyoglobin) (apomyoglobin): 42

Compound: CC(=O)Oc1ccc([N+](=O)[O-])cc1 [Acetate, p-nitrophenyl acetate]
- rate of hydrolysis by 5×10^-5 M apomyoglobin versus apomyoglobin first reacted with 5×10^-5 M ester to 95% completion (apomyoglobin; 1×10^-5 M ester): identical
- k2 /KM (catalytic constant) (apomyoglobin): 13.5 M⁻¹ s⁻¹
- k2 /Kun (enhancement over rate in the absence of apomyoglobin) (apomyoglobin): 134
- K2 (apomyoglobin): 0.0058 s⁻¹
- reaction completion (apomyoglobin; after 150 seconds, buffer containing apomyoglobin): 98%
- Turnover (k3 versus k2) (apomyoglobin; rate with fresh apomyoglobin compared with pre-reacted apomyoglobin): k3 is much greater than k2
- reaction completion [3]: 2%

— patent US4764464A, “Semisynthetic enzymes: apoproteins from heme proteins as hydrolases” (priority 1986, dated 1988)
